From ChEMBL document CHEMBL2434930, “Design, synthesis and biological evaluation of novel anti-cytokine 1,2,4-triazine derivatives” (Bioorg Med Chem, 2013)
The source made the active and inactive calls. The calls are words filed in the database; no cut-off is given here.

Legend:
[1] = system: PBMC; test: Antiinflammatory activity in human PBMC assessed as inhibition of LPS-induced IL1-beta production at 10 uM treated 30 mins before LPS challenge measured after 6 hrs by ELISA; type: functional
[2] = system: PBMC; test: Cytotoxicity against human PBMC assessed as cell viability at 10 to 20 uM by MTT assay; type: cell-based
[3] = system: MCF7; test: Cytotoxicity against human MCF7 cells assessed as cell viability at 10 to 20 uM by MTT assay; type: cell-based; settings: mcf7, 20 µM
[4] = system: PBMC; test: Antiinflammatory activity in human PBMC assessed as inhibition of LPS-induced TNFalpha production at 10 uM treated 30 mins before LPS challenge measured after 6 hrs by ELISA; type: functional
[5] = system: Rattus norvegicus; test: Antiinflammatory activity in rat assessed as inhibition of carrageenan-induced paw edema at 50 mg/kg, ip administered 1 hr before carrageenan challenge measured at 3 hrs relative to control; type: functional; settings: route intraperitoneal
[6] = system: Rattus norvegicus; test: Antiinflammatory activity in rat assessed as inhibition of carrageenan-induced paw edema at 50 mg/kg, ip administered 1 hr before carrageenan challenge measured at 1 hr relative to control; type: functional; settings: route intraperitoneal
[7] = system: Rattus norvegicus; test: Antiinflammatory activity in rat assessed as inhibition of carrageenan-induced paw edema at 50 mg/kg, ip administered 1 hr before carrageenan challenge measured at 2 hrs relative to control; type: functional; settings: route intraperitoneal
[8] = system: Rattus norvegicus; test: Antiinflammatory activity in rat assessed as inhibition of carrageenan-induced paw edema at 50 mg/kg, ip administered 1 hr before carrageenan challenge measured at 4 hrs relative to control; type: functional; settings: route intraperitoneal
[9] = system: Rattus norvegicus; test: Antiinflammatory activity in rat assessed as inhibition of carrageenan-induced paw edema at 10 mg/kg, ip administered 1 hr before carrageenan challenge measured at 4 hrs relative to control; type: functional; settings: route intraperitoneal
[10] = system: Rattus norvegicus; test: Antiinflammatory activity in rat assessed as inhibition of carrageenan-induced paw edema at 10 mg/kg, ip administered 1 hr before carrageenan challenge measured at 3 hrs relative to control; type: functional; settings: route intraperitoneal
[11] = target: T1, MAP kinase p38 (Homo sapiens) (UniProt O15264+Q15759+Q16539+P53778); test: Inhibition of etoposide-induced p38 MAPK activation in human MCF7 cells assessed as phosphorylated ATF-2 level at 20 uM treated 30 mins before etoposide challenge measured after 3 hrs by Western blot analysis; type: cell-based
[12] = target: T1, MAP kinase p38 (Homo sapiens); test: Inhibition of etoposide-induced p38 MAPK activation in human MCF7 cells at 20 uM treated 30 mins before etoposide challenge measured after 3 hrs by Western blot analysis; type: cell-based
[13] = system: Rattus norvegicus; test: Antiinflammatory activity in rat assessed as inhibition of carrageenan-induced paw edema at 10 mg/kg, ip administered 1 hr before carrageenan challenge measured at 2 hrs relative to control; type: functional; settings: route intraperitoneal
[14] = system: Rattus norvegicus; test: Antiinflammatory activity in rat assessed as inhibition of carrageenan-induced paw edema at 10 mg/kg, ip administered 1 hr before carrageenan challenge measured at 1 hr relative to control; type: functional; settings: route intraperitoneal

Compound	inhibition at 10 µM [1]	Activity [2]	Activity [3]	inhibition at 10 µM [4]	further results
COc1ccc(-c2nnc(N/N=C/c3cc4ccccc4[nH]3)nc2-c2ccc(OC)cc2)cc1	82.3%	Non-toxic	Non-toxic	53.3%	
COc1ccc(-c2nnc(N/N=C/c3ccc([N+](=O)[O-])cc3)nc2-c2ccc(OC)cc2)cc1	15.5%	Non-toxic	Non-toxic	37.6%	
COc1ccc(-c2nnc(N/N=C/c3ccc(O)cc3O)nc2-c2ccc(OC)cc2)cc1	51.8%	Non-toxic	Non-toxic	32.7%	
COc1ccc(-c2nnc(N/N=C/c3ccco3)nc2-c2ccc(OC)cc2)cc1	84%	Non-toxic	Non-toxic	71.1%	
Oc1ccc(-c2nc(-c3ccc(F)cc3)c(-c3ccncc3)[nH]2)cc1 [SB-202190]	93.4%			87.2%	
COc1ccc(-c2nnc(N/N=C/c3ccc4c(c3)OCO4)nc2-c2ccc(OC)cc2)cc1	86.9%	Non-toxic	Non-toxic	52.2%	
COc1ccc(-c2nnc(N/N=C/c3cccs3)nc2-c2ccc(OC)cc2)cc1	81.8%	Non-toxic	Non-toxic	57.5%	
COc1ccc(/C=N/Nc2nnc(-c3ccc(OC)cc3)c(-c3ccc(OC)cc3)n2)cc1	35.9%	Non-toxic	Non-toxic	48.5%	
COc1ccc(-c2nnc(N/N=C/c3ccncc3)nc2-c2ccc(OC)cc2)cc1	60.8%	Non-toxic	Non-toxic	41.8%	
COc1ccc(-c2nnc(N/N=C/c3cccc(O)c3O)nc2-c2ccc(OC)cc2)cc1	78.2%	Non-toxic	Non-toxic	46.7%	
COc1ccc2c(c1)c(CC(=O)O)c(C)n2C(=O)c1ccc(Cl)cc1 [INDOMETHACIN]					inhibition in vivo at 50 mg/kg [5]: 48.2%; inhibition in vivo at 50 mg/kg [6]: 19.2%; inhibition in vivo at 50 mg/kg [7]: 28.4%; inhibition in vivo at 50 mg/kg [8]: 68.2%
COc1ccc(-c2nnc(N/N=C/c3cccc(OC)c3OC)nc2-c2ccc(OC)cc2)cc1	89.8%	Non-toxic	Non-toxic	71.8%	inhibition in vivo at 10 mg/kg [9]: 75.6%; inhibition in vivo at 10 mg/kg [10]: 64.2%; inhibition [11]: Active; inhibition [12]: inactive; inhibition in vivo at 10 mg/kg [13]: 45.3%; inhibition in vivo at 10 mg/kg [14]: 38.8%
COc1ccc(-c2nnc(N/N=C/c3ccccc3)nc2-c2ccc(OC)cc2)cc1	71.5%	Non-toxic	Non-toxic	53.1%	
COc1ccc(-c2nnc(N/N=C/c3c(Cl)cccc3[N+](=O)[O-])nc2-c2ccc(OC)cc2)cc1	2.81%	Non-toxic	Non-toxic	47.9%	
COc1ccc(-c2nnc(N/N=C/c3ccc(Cl)cc3Cl)nc2-c2ccc(OC)cc2)cc1	86.9%	Non-toxic	Non-toxic	70%	
COc1ccc(-c2nnc(N/N=C/c3ccc(OC)c(OC)c3)nc2-c2ccc(OC)cc2)cc1	39.9%	Non-toxic	Non-toxic	45%	
COc1ccc(-c2nnc(N/N=C/c3ccc(F)cc3)nc2-c2ccc(OC)cc2)cc1	27.9%	Non-toxic	Non-toxic	34.5%	
COc1ccc(-c2nnc(N/N=C/c3ccc(O)c(OC)c3)nc2-c2ccc(OC)cc2)cc1	84.3%	Non-toxic	Non-toxic	46.1%	
